From patent EP2698385A1, “Detection of synthetic cannabinoids” (priority 2012, dated 2014)

Key:
Antibody to Immunogen I = type: binding, sheep; conditions: Cross-reactants at 100 ng/ml; Antibody to Immunogen I
How it was run: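 Sheep anti-Immunogen I IgG coated on plates, then JWH-018 standards (0–40 ng/ml) competed with hapten-HRP conjugate for 1 h at 25°C. TMB read-out at 450 nm, 4-parameter fit. IC50 is the standard concentration giving 50% B/B0; cross-reactivity of related cannabinoids taken from the calibration curves.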

[1] = tested on: Antibody to Immunogen VIII; type: binding, sheep; conditions: Cross-reactants at 100 ng/ml; Antibody to Immunogen VIII
Antibody to Immunogen IV = type: binding, sheep; conditions: Cross-reactants at 100 ng/ml; Antibody to Immunogen IV
[2] = tested on: Antibody to Immunogen VII; type: binding, sheep; conditions: Cross-reactants at 100 ng/ml; Antibody to Immunogen VII
[3] = tested on: antibodies raised to Immunogens I & II; assay: Competitive ELISA (Example 19), sensitivity and cross-reactivity of selected molecules, one result for both antibodies; type: binding, sheep; conditions: for % CR / IC50: first Table 3, Standard Conc 750.00 ng/ml; for binding / cross-reaction with antibodies raised from Immunogens I and II: result in words
Method: (§1) Aqueous solutions of the immunogens prepared in examples 5 and 13 were formulated with Freund's Complete Adjuvant (FCA) to form emulsions consisting of 2mg/ml Immunogen I and 2mg/ml of Immunogen II in 50%(v/v) FCA. Three sheep were immunised with each emulsion (1° immunisations), 0.25ml being intramuscularly injected at four sites in the rump of each animal. Subsequent immunisations (boosts 2-8) contained 1mg/ml Immunogen I and 1mg/ml Immunogen II. All boosts were emulsified in 50%(v/v) Freund's Incomplete Adjuvant (FIA) and administered to the appropriate sheep in the same manner as the 1° immunisations, at monthly intervals. Blood sampling took place 7-14 days after each boost. Each sample was processed to produce antiserum, which was further purified by caprylic acid and ammonium sulphate precipitation to yield an immunoglobulin (Ig) fraction. The Ig fraction was evaluated by competitive ELISA microtiter plate assay, as described in example 19 below.
(§2) Example 19: Development of competitive ELISA for JWH synthetic cannabinoids and metabolites. • (a) The wells of an enhanced binding 96 well polystyrene microtiter plate were coated with the Ig fraction of the antiserum raised to Immunogen I (Hapten A-BTG - example 5) and diluted in 10mM Tris, pH8.5 (125µl/well). The appropriate antibody coating concentration was determined using standard ELISA checkerboard techniques. The plate was incubated for 2 hours at 37°C, washed 4 times over a 10-minute period with Tris buffered saline containing Tween 20 (TBST) and tapped dry. Standard solutions of JWH synthetic cannabinoids, metabolites and selected molecules were prepared in TBST and 50µl of each was added to the appropriate wells. 75µl of conjugate (Hapten A-HRP) diluted in Tris buffer containing EDTA, D-mannitol, sucrose, thimerosal and BSA, was added to each of the wells. The appropriate dilution of conjugate was also determined using standard ELISA checkerboard techniques. The plate was incubated at 25°C for 1 hour. The excess unbound conjugate was removed by washing 6 times over a 10-minute period with TBST and tapped dry. 125µl of tetramethylbenzedine (TMB) substrate solution was added to each well of the plate that was then incubated for 15-20 minutes in the dark at room temperature. The reaction was terminated by addition of 125µl of 0.2M sulphuric acid to each well. The absorbance was then measured at 450nm using a microtiter plate reader. Employing each series of standards, calibration curves were generated and these were used to determine the specificity of the immunoassay for the JWH synthetic cannabinoids, metabolites and selected molecules. The results of this study are presented in Tables 1 to 3, cross-reactivity being calculated according to the following formula: %CR = […] /IC50,CR X 100 [formula] Where %CR is the percentage cross-reactivity, IC50, YWH-018 is the concentration of JWH-018 that causes 50% displacement of signal and IC50, CR is the concentration of JWH synthetic cannabinoid/metabolite/selected molecule that causes 50% displacement of signal.
Table 2: Data generated from a competitive microtiter plate assay for JWH synthetic cannabinoids and metabolites, employing antiserum raised to Immunogen I (Hapten A-BTG) and conjugate (Hapten A-HRP) as detection reagent. • (c) The resulting competitive ELISA for synthetic cannabinoids and metabolites was further employed to analyse urine and serum samples from 20 patients (Table 3). • (d) The resulting competitive ELISA for synthetic cannabinoids and metabolites was also employed to test for the 5-fluoropentyl derivative of JWH-018, (1-(5-fluoropentyl)indol-3yl (1-naphthyl) methanone (Table 4).

CB1 receptor = CB1 receptor (Homo sapiens, UniProt P21554); conditions: result in words; detailed in US6900236; cited from earlier work
Chain of CB1 receptor (P21554 whole entry): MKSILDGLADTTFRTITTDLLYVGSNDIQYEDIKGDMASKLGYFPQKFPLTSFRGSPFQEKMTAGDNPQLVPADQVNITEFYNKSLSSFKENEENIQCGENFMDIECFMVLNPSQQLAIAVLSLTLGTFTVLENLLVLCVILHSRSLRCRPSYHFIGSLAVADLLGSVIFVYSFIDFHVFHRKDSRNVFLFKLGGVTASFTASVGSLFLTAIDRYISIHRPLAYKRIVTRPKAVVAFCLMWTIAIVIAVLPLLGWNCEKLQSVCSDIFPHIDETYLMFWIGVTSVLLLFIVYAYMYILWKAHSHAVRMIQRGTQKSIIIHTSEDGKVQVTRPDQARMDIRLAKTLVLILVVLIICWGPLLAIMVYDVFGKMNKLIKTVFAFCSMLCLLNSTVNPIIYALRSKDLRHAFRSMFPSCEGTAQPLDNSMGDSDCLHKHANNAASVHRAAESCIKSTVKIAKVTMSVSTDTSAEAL

[4] = tested on: antiserum raised to Immunogen II (Hapten B-BTG); assay: Competitive ELISA microtiter plate assay (Example 19), antiserum raised to Immunogen II, Hapten A-HRP conjugate as detection reagent; type: binding, sheep; conditions: first Table 4, Immunogen II
Method: as §1, §2
Table 1: Data generated from a competitive microtiter plate assay for JWH synthetic cannabinoids and metabolites, employing antiserum raised to Immunogen II (Hapten B-BTG) and conjugate (Hapten A-HRP) as detection reagent. (b) In a similar manner to that described in Example 19(a), the wells of a 96 well microtiter plate were coated with the Ig fraction of the antiserum raised to Immunogen II ([…]). Conjugate (Hapten A-HRP) was employed as a detection reagent.

[5] = tested on: antiserum raised to Immunogen I (Hapten A-BTG); assay: Competitive ELISA microtiter plate assay (Example 19), antiserum raised to Immunogen I, Hapten A-HRP conjugate as detection reagent; type: binding, sheep; conditions: first Table 4, Immunogen I
Method: as §1, §2
Table 1: Data generated from a competitive microtiter plate assay for JWH synthetic cannabinoids and metabolites, employing antiserum raised to Immunogen II (Hapten B-BTG) and conjugate (Hapten A-HRP) as detection reagent. (b) In a similar manner to that described in Example 19(a), the wells of a 96 well microtiter plate were coated with the Ig fraction of the antiserum raised to Immunogen II ([…]). Conjugate (Hapten A-HRP) was employed as a detection reagent. […]

Compound: CCCCCCC(C)(C)c1ccc([C@H]2CCC[C@@H](O)C2)c(O)c1 (racemic) [CP-49,497-C7 ((+-) CP 47,497), CP 47,497]
- %B/B0 (Antibody to Immunogen I): 101.20%
- %B/B0 [1]: 86.95%
- %B/B0 (Antibody to Immunogen IV): 96.84%
- %B/B0 [2]: 94.23%
- % CR [3]: < 0.28%
- IC50 [3]: > 750.00 ng/mL

Compound: CCCCCn1cc(C(=O)O)c2ccccc21 [3-Carboxy-N-pentyl-1H -indole, 3-carboxy-1-pentyl-1H-indole]
- % CR [3]: < 0.28%
- IC50 [3]: > 750.00 ng/mL

Compound: COc1cccc2[nH]cc(CCN(C)C)c12 [4-Methoxypsilocin]
- % CR [3]: < 0.28%
- IC50 [3]: > 750.00 ng/mL

Compound: O=C(c1cccc2ccccc12)c1cn(CCCCCF)c2ccccc12 [5-Fluoropentyl derivative, 1-(5-Fluoropentyl)indol-3-yl (1-naphthyl) methanone]
- binding to the CB1 receptor (CB1 receptor): known to bind
- IC50 [4]: 0.22 ng/mL
- % Cross-reactivity ([4]; JWH-018 = 100): 908.00%
- IC50 [5]: 0.02 ng/mL
- % Cross-reactivity ([5]; JWH-018 = 100): 11500.00%
- binding / cross-reaction with antibodies raised from Immunogens I and II [3]: binds

Compound: O=C(O)Cc1c[nH]c2ccc(O)cc12 [5-hydroxyindole-3-acetic acid (5-HIAA), 5-hydroxyindole-3-acetic acid]
- %B/B0 [1]: 108.24%
- %B/B0 (Antibody to Immunogen IV): 96.61%
- %B/B0 [2]: 99.46%
- % CR [3]: < 0.28%
- IC50 [3]: > 750.00 ng/mL

Compound: OCCc1c[nH]c2ccc(O)cc12 [5-hydroxytryptophol]
- %B/B0 [1]: 102.93%
- %B/B0 (Antibody to Immunogen IV): 94.51%
- %B/B0 [2]: 98.45%
- % CR [3]: < 0.28%
- IC50 [3]: > 750.00 ng/mL

Compound: CCCCCc1cc(O)c2c(c1)OC(C)(C)[C@@H]1CCC(CO)=C[C@@H]21 [11-Hydroxy-δ-9-THC]
- % CR [3]: < 0.28%
- IC50 [3]: > 750.00 ng/mL

Compound: CCCCCc1cc(O)c2c(c1)OC(C)(C)c1ccc(C)cc1-2 [Cannabinol]
- %B/B0 [1]: 94.03%
- %B/B0 (Antibody to Immunogen IV): 94.74%
- %B/B0 [2]: 95.43%
- % CR [3]: < 0.28%
- IC50 [3]: > 750.00 ng/mL

Compound: CCCCCc1cc(O)c2c(c1)OC(C)(C)[C@@H]1CCC(C)=C[C@@H]21 [Delta 9 THC]
- %B/B0 [1]: 96.10%
- %B/B0 (Antibody to Immunogen IV): 93.62%
- %B/B0 [2]: 96.76%
- % CR [3]: < 0.28%
- IC50 [3]: > 750.00 ng/mL

Compound: O=C(O)c1c[nH]c2ccccc12 [Indole-3-carboxylic Acid]
- %B/B0 [1]: 96.28%
- %B/B0 (Antibody to Immunogen IV): 93.42%
- %B/B0 [2]: 96.90%
- % CR [3]: < 0.28%
- IC50 [3]: > 750.00 ng/mL
- binding / cross-reaction with antibodies raised from Immunogens I and II [3]: do not cross-react

Compound: CCn1cc(C(=O)c2cccc3ccccc23)c2ccccc21 [JWH-071]
- binding / cross-reaction with antibodies raised from Immunogens I and II [3]: bind

Compound: NCCc1c[nH]c2ccc(O)cc12 [Serotonin]
- % CR [3]: < 0.28%
- IC50 [3]: > 750.00 ng/mL
